Patent publication US20250228855A1, “PYRAZINAMIDE COMPOUNDS” (The General Hospital Corporation, priority 2022, published 2025)
pIC50, pKd: −log10 of the molar value. Structures can show the parent of a compound that is named as a salt. Where two headings read alike, the source gives them in different places.

Key:
[1] = biological target: T1, HsProRS (Homo sapiens, UniProt P07814); assay: TR-FRET ligand displacement assay with tracer MAT379, HsProRS; format: binding
T1 sequence (P07814 1007-1512 limits assumed): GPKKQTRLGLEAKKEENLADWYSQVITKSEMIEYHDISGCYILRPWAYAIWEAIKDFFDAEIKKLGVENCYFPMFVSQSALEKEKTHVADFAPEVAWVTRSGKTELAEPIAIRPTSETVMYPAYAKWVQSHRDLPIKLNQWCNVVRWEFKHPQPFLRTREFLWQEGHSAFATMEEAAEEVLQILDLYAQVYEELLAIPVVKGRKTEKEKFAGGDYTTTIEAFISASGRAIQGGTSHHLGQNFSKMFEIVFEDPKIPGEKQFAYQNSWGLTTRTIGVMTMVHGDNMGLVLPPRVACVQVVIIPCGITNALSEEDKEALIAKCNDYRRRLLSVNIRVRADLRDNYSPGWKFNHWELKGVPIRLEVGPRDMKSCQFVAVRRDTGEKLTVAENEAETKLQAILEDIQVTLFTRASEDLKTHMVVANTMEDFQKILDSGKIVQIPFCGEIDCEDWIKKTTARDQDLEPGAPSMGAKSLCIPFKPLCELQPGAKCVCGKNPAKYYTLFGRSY

[2] = system: P. falciparum Dd2-2D4; assay: P. falciparum asexual blood stage growth assay, wild-type Dd2-2D4; conditions: for EC50: DD2, 72 h, read-out: Dd2 (EC50 [nM]) wt
Experimental: Asexual blood stage (ABS) P. falciparum parasites were treated with test compounds at varying concentrations for 72 h, followed by quantification of parasite growth by SYBR Green staining.
P. falciparum Asexual Blood Stage Growth Assay: This assay was performed as previously described.

[3] = biological target: PfcProRS (Plasmodium falciparum, UniProt Q8I5R7); assay: TR-FRET ligand displacement assay with tracer MAT379, PfcProRS; format: binding
[4] = no proline, no ATP, read-out: HsProRS (KD [nM]) −
[5] = read-out: HsProRS (KD [nM]) +proline, 100 μM Pro
[6] = PfcProRS (KD [nM]) +proline, 100 μM Pro
[7] = no proline, no ATP, read-out: PfcProRS (KD [nM]) −
[8] = read-out: PfcProRS (KD [nM]) +proline, 100 μM Pro

PfcProRS, sequence (Q8I5R7 whole entry): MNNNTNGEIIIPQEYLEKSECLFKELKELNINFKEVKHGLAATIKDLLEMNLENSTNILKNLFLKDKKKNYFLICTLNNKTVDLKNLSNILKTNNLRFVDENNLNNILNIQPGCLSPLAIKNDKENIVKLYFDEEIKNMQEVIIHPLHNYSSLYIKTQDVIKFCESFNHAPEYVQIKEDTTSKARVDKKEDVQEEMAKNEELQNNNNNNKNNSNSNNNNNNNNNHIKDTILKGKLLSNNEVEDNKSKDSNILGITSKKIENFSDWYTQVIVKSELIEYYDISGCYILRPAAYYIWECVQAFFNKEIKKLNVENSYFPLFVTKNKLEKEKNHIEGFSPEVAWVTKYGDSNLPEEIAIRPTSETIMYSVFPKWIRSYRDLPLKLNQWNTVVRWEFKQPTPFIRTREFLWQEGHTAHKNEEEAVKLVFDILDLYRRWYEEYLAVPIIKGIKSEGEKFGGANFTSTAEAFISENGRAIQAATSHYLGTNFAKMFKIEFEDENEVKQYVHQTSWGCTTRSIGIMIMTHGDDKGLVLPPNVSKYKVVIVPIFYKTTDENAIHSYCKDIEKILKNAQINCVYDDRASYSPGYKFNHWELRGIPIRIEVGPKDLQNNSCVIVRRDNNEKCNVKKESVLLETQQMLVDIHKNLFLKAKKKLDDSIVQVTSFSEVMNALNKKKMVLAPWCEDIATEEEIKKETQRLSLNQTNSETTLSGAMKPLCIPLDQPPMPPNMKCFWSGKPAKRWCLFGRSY

Structure (SMILES): CC(C)(C)OC(=O)NC1CCN(C(=O)Nc2nccnc2C(=O)NC2Cc3ccccc3C2)CC1 [Compound 7, tert-butyl (1-((3-((2,3-dihydro-1H-inden-2-yl)carbamoyl)pyrazin-2-yl)carbamoyl)piperidin-4-yl)carbamate]
- Kd [1, 4]: 22.1 nM
- Kd [1, 5]: 34.8 nM

Structure (SMILES): O=C(NC1Cc2ccccc2C1)c1nccnc1NC(=O)C1CCOCC1 [Compound 18, N-(2,3-dihydro-1H-inden-2-yl)-3-(tetrahydro-2H-pyran-4-carboxamido)pyrazine-2-carboxamide]
- Kd [1, 4]: 7400 nM
- Kd [1, 5]: 225 nM
- EC50 ([2]; Plasmodium falciparum): > 20000 nM
- Kd [3, 6]: 1590 nM
- Kd [3, 7]: > 2860 nM

Structure (SMILES): NC1CCN(C(=O)Nc2nccnc2C(=O)NC2Cc3ccccc3C2)CC1 [Compound 8, 3-(4-aminopiperidine-1-carboxamido)-N-(2,3-dihydro-1H-inden-2-yl)pyrazine-2-carboxamide dihydrochloride]
- pKd [1]: < 5.29
- Kd ([1]; HsProRS (KD [nM]) −): > 8720 nM
- Kd [3, 6]: > 2180 nM
- Kd [3, 7]: > 2860 nM

Structure (SMILES): O=C(NS(=O)(=O)NC1CCN(C(=O)Nc2nccnc2C(=O)NC2Cc3ccccc3C2)CC1)OCCn1cnc2ccccc2c1=O [MAT513, 2-(4-oxoquinazolin-3(4H)-yl)ethyl (N-(1-((3-((2,3-dihydro-1H-inden-2-yl)carbamoyl)pyrazin-2-yl)carbamoyl)piperidin-4-yl)sulfamoyl)carbamate]
- pKd ([1]; absence of proline, read-out: KD for HsProRS): 6.80
- EC50 ([2]; Plasmodium falciparum): 4830 nM
- pIC50 ([2]; Plasmodium falciparum, DD2, read-out: IC50 for Dd2-2D4): 5.32
- pKd ([3]; absence of proline, read-out: KD for PfcProRS): 7.69

Structure (SMILES): Nc1ncnc2c1ncn2[C@@H]1O[C@H](COS(=O)(=O)NC(=O)OC2CCCNC2CC(=O)Cn2cnc3cc(Br)c(Cl)cc3c2=O)[C@@H](O)[C@H]1O (stereo partly drawn) [MAT430, ((2R,3S,4R,5R)-5-(6-amino-9H-purin-9-yl)-3,4-dihydroxytetrahydrofuran-2-yl)methy ((((2S,3R)-2-(3-(7-bromo-6-chloro-4-oxoquinazolin-3(4H)-yl)-2-oxopropyl)piperidin-3-yl)oxy)carbonyl)sulfamate]
- Kd [1, 4]: 18.4 nM
- Kd [3, 7]: 5.01 nM

Structure (SMILES): NCCCCCC(=O)NCCCCCC(=O)NC1CCN(C(=O)Nc2nccnc2C(=O)NC2Cc3ccccc3C2)CC1 [MAT421]
- Kd [1, 4]: 2340 nM
- Kd [1, 5]: 2260 nM
- Kd [3, 7]: 2280 nM
- Kd [3, 8]: 1960 nM

Structure (SMILES): Nc1nccnc1C(=O)NC1CCCCC1 [Compound 48, 3-amino-N-cyclohexylpyrazine-2-carboxamide]
- pKd [1]: < 5.29
- Kd [1, 4]: > 8720 nM
- EC50 ([2]; Plasmodium falciparum): 8740 nM
- Kd [3, 6]: > 2180 nM
- Kd [3, 7]: > 2860 nM

Structure (SMILES): NCC1CCN(C(=O)Nc2nccnc2C(=O)NC2Cc3ccccc3C2)CC1 [Compound 10, 3-(4-(aminomethyl)piperidine-1-carboxamido)-N-(2,3-dihydro-1H-inden-2-yl)pyrazine-2-carboxamide dihydrochloride]
- Kd ([1]; HsProRS (KD [nM]) −): > 8720 nM
- Kd [1, 5]: 1360 nM
- Kd [3, 6]: > 2180 nM
- Kd [3, 7]: > 2860 nM

Structure (SMILES): CC(C)(C)OC(=O)N1CCN(C(=O)Nc2nccnc2C(=O)NC2Cc3ccccc3C2)CC1 [Compound 13, tert-butyl 4-((3-((2,3-dihydro-1H-inden-2-yl)carbamoyl)pyrazin-2-yl)carbamoyl)piperazine-1-carboxylate]
- pKd [1]: < 5.29
- Kd [1, 4]: > 8720 nM
- Kd [3, 6]: > 2180 nM
- Kd [3, 7]: > 2860 nM

Structure (SMILES): NC(=O)Nc1nccnc1C(=O)NC1Cc2ccccc2C1 [Compound 23, N-(2,3-dihydro-1H-inden-2-yl)-3-ureidopyrazine-2-carboxamide]
- pKd [1]: < 5.29
- Kd [1, 4]: > 8720 nM
- EC50 ([2]; Plasmodium falciparum): 12100 nM
- Kd [3, 6]: > 2180 nM
- Kd [3, 7]: > 2860 nM

Structure (SMILES): CC(C)(C)OC(=O)NC1(C(=O)Nc2nccnc2C(=O)NC2Cc3ccccc3C2)CCCCC1 [Compound 16, tert-butyl (1-((3-((2,3-dihydro-1H-inden-2-yl)carbamoyl)pyrazin-2-yl)carbamoyl)cyclohexyl)carbamate]
- pKd [1]: < 5.29
- Kd [1, 4]: > 8720 nM
- EC50 ([2]; Plasmodium falciparum): 6110 nM
- Kd [3, 6]: > 2180 nM
- Kd [3, 7]: > 2860 nM

Structure (SMILES): O=C(NC1Cc2ccccc2C1)c1nccnc1NS(=O)(=O)C1CCCCC1 [Compound 50, 3-(cyclohexanesulfonamido)-N-(2,3-dihydro-1H-inden-2-yl)pyrazine-2-carboxamide]
- pKd [1]: < 5.29
- Kd [1, 4]: > 8720 nM
- EC50 ([2]; Plasmodium falciparum): 13000 nM
- Kd [3, 6]: > 2180 nM
- Kd [3, 7]: > 2860 nM

Structure (SMILES): O=C(C[C@@H]1NCCC[C@@H]1OC(=O)NS(=O)(=O)N1CCN(C(=O)Nc2nccnc2C(=O)NC2Cc3ccccc3C2)CC1)Cn1cnc2cc(Br)c(Cl)cc2c1=O (relative stereo) [iso-MAT436(40), cis-2-(3-(7-bromo-6-chloro-4-oxoquinazolin-3(4H)-yl)-2-oxopropyl)piperidin-3-yl ((4-((3-((2,3-dihydro-1H-inden-2-yl)carbamoyl)pyrazin-2-yl)carbamoyl)piperazin-1-yl)sulfonyl)carbamate]
- Kd [1, 5]: 20.8 nM
- fold less active than MAT436 against ABS P. falciparum [2]: 3 fold
- fold lower affinity / reduced biochemical potency relative to MAT436 [3]: ~10 fold
- fold lower affinity / reduced biochemical potency relative to MAT436 ([3]; listed as 40): 5-10 fold

Structure (SMILES): CNc1nccnc1C(=O)NC1Cc2ccccc2C1 [Compound 46, N-(2,3-dihydro-1H-inden-2-yl)-3-(methylamino)pyrazine-2-carboxamide]
- pKd [1]: < 5.29
- Kd [1, 4]: > 8720 nM
- EC50 ([2]; Plasmodium falciparum): 8110 nM
- Kd [3, 6]: > 2180 nM
- Kd [3, 7]: > 2860 nM

Structure (SMILES): O=C(Nc1nccnc1C(=O)NC1Cc2ccccc2C1)c1ccccc1 [Compound 21, 3-benzamido-N-(2,3-dihydro-1H-inden-2-yl)pyrazine-2-carboxamide]
- Kd [1, 4]: 7830 nM
- Kd [1, 5]: 140 nM
- EC50 ([2]; Plasmodium falciparum): 9600 nM
- Kd [3, 6]: 1430 nM
- Kd [3, 7]: > 2860 nM

Structure (SMILES): O=C(O)CCCC(=O)Nc1nccnc1C(=O)NC1Cc2ccccc2C1 [Compound 22, 5-((3-((2,3-dihydro-1H-inden-2-yl)carbamoyl)pyrazin-2-yl)amino)-5-oxopentanoic acid]
- pKd [1]: < 5.29
- Kd [1, 4]: > 8720 nM
- EC50 ([2]; Plasmodium falciparum): 12300 nM
- Kd [3, 6]: > 2180 nM
- Kd [3, 7]: > 2860 nM

Structure (SMILES): NC1(C(=O)Nc2nccnc2C(=O)NC2Cc3ccccc3C2)CCCCC1 [Compound 17, 3-(1-aminocyclohexane-1-carboxamido)-N-(2,3-dihydro-1H-inden-2-yl)pyrazine-2-carboxamide]
- Kd [1, 4]: 4430 nM
- Kd [1, 5]: 25.5 nM
- EC50 ([2]; Plasmodium falciparum): 5790 nM
- Kd [3, 6]: 131 nM
- Kd [3, 7]: 1390 nM

Structure (SMILES): O=C(NC1CCCCC1)c1nccnc1NC(=O)C1Cc2ccccc2C1 [Compound 49, N-cyclohexyl-3-(2,3-dihydro-1H-indene-2-carboxamido)pyrazine-2-carboxamide]
- pKd [1]: < 5.29
- Kd [1, 4]: > 8720 nM
- EC50 ([2]; Plasmodium falciparum): 6800 nM
- Kd [3, 6]: > 2180 nM
- Kd [3, 7]: > 2860 nM

Structure (SMILES): CC(C)(C)OC(=O)NCCCCCC(=O)NCCCCCC(=O)NC1CCN(C(=O)Nc2nccnc2C(=O)NC2Cc3ccccc3C2)CC1 [MAT420]
- Kd [1, 5]: 781 nM
- Kd ([1]; read-out: HsProRS (KD [nM]) −, no proline, no ATP): 415 nM
- Kd [3, 8]: 332 nM
- Kd ([3]; read-out: PfcProRS (KD [nM]) −, no proline, no ATP): 292 nM

Structure (SMILES): O=C(NC1Cc2ccccc2C1)c1nccnc1NC(=O)N1CCC(CO)CC1 [Compound 11, N-(2,3-dihydro-1H-inden-2-yl)-3-(4-(hydroxymethyl)piperidine-1-carboxamido)pyrazine-2-carboxamide]
- Kd [1, 4]: 265 nM
- EC50 ([2]; Plasmodium falciparum): 712 nM
- Kd [3, 7]: 299 nM

Structure (SMILES): CC(C)N(C(=O)Nc1nccnc1C(=O)NC1Cc2ccccc2C1)C(C)C [Compound 5, N-(2,3-dihydro-1H-inden-2-yl)-3-(3,3-diisopropylureido)pyrazine-2-carboxamide]
- Kd [1, 4]: > 8720 nM
- EC50 ([2]; Plasmodium falciparum): > 10000 nM
- Kd [3, 7]: > 2860 nM

Structure (SMILES): Nc1nccnc1C(=O)NC1Cc2ccccc2C1 [Compound 45, 3-amino-N-(2,3-dihydro-1H-inden-2-yl)pyrazine-2-carboxamide]
- pKd [1]: < 5.29
- Kd [1, 4]: > 8720 nM
- EC50 ([2]; Plasmodium falciparum): 13600 nM
- Kd [3, 6]: > 2180 nM
- Kd [3, 7]: > 2860 nM

Structure (SMILES): O=C(NC1Cc2ccccc2C1)c1nccnc1NC(=O)N1CCNCC1 [Compound 14, N-(2,3-dihydro-1H-inden-2-yl)-3-(piperazine-1-carboxamido)pyrazine-2-carboxamide dihydrochloride]
- Kd ([1]; HsProRS (KD [nM]) −): > 8720 nM
- Kd [1, 5]: 347 nM
- Kd [3, 6]: 1630 nM
- Kd [3, 7]: > 2860 nM

Structure (SMILES): O=C(CCCCCNC(=S)NC1CCCCC1)NC1CCN(C(=O)Nc2nccnc2C(=O)NC2Cc3ccccc3C2)CC1 [MAT483]
- Kd [1, 4]: 1000 nM
- Kd [1, 5]: 3020 nM
- Kd [3, 7]: 198 nM
- Kd [3, 8]: 171 nM

Structure (SMILES): O=c1[nH]c2nccnc2c(=O)n1C1Cc2ccccc2C1 [Compound 47, 3-(2,3-dihydro-1H-inden-2-yl)pteridine-2,4(1H,3H)-dione]
- Kd [1, 4]: > 8720 nM
- EC50 ([2]; Plasmodium falciparum): 11100 nM
- Kd [3, 6]: > 2180 nM
- Kd [3, 7]: > 2860 nM

Structure (SMILES): O=C(NS(=O)(=O)N1CCN(C(=O)Nc2nccnc2C(=O)NC2Cc3ccccc3C2)CC1)OCCn1cnc2ccccc2c1=O [MAT512, 2-(4-oxoquinazolin-3(4H)-yl)ethyl ((4-((3-((2,3-dihydro-1H-inden-2-yl)carbamoyl)pyrazin-2-yl)carbamoyl)piperazin-1-yl)sulfonyl)carbamate]
- EC50 ([2]; Plasmodium falciparum): > 10000 nM
